The values that follow come from article PMC3914206.

Format in all cases: binding
What all share (set-up): KINOMEscan: ABL1(F317L)-phosphorylated / KINOMEscan: ABL1(H396P)-nonphosphorylated / KINOMEscan: ABL1(H396P)-phosphorylated / KINOMEscan: ABL1(M351T)-phosphorylated / KINOMEscan: ABL1(T315I)-phosphorylated / KINOMEscan: ABL1-nonphosphorylated / KINOMEscan: ABL1-phosphorylated / KINOMEscan: ACVR2A / KINOMEscan: ACVR2B / KINOMEscan: ADCK3 / KINOMEscan: ADCK4 / KINOMEscan: AKT1 / KINOMEscan: AKT3 / KINOMEscan: ALK / KINOMEscan: ARK5 / KINOMEscan: AURKA / KINOMEscan: AURKC / KINOMEscan: BIKE / KINOMEscan: BMPR1A / KINOMEscan: BMPR1B / KINOMEscan: BMX / KINOMEscan: BRK / KINOMEscan: BRSK1 / KINOMEscan: BRSK2 / KINOMEscan: CAMK1 / KINOMEscan: CAMK1D / KINOMEscan: CAMK1G / KINOMEscan: CAMK2A / KINOMEscan: CAMK2B / KINOMEscan: AAK1 / KINOMEscan: CAMK2D / KINOMEscan: CAMK2G / KINOMEscan: ABL1(F317I)-nonphosphorylated / KINOMEscan: ABL1(F317I)-phosphorylated / KINOMEscan: ABL1(F317L)-nonphosphorylated: unit: % Ctrl

Test [1] concerns the target T1, panel of 442 kinases (Homo sapiens, UniProt Q9NYL2).
T1 construct: purchased KINOMEscan
The note with it: kinase ZAK; compound concentration 10 µM. From the text: (§1) We assessed the selectivity of members of this scaffold using the KINOMEscan methodology across a near comprehensive panel of 442 kinases [[18,27]].

The target in test [2] is T2, panel of 442 kinases (Homo sapiens, UniProt Q15375).
T2 construct: purchased KINOMEscan
To be noted: Compound Concentration 10 µM.
Text: as §1

For test [3], the target named is T3, panel of 442 kinases (Homo sapiens, UniProt Q9UQM7).
T3 construct: purchased KINOMEscan
To be noted: Compound Concentration 10 µM.
Text: as §1

Test [4] has as its target T4, panel of 442 kinases (Homo sapiens, UniProt O96013).
T4 construct: purchased KINOMEscan
To be noted: Compound Concentration 10 µM.
Text: as §1

T4 sequence (O96013 whole entry): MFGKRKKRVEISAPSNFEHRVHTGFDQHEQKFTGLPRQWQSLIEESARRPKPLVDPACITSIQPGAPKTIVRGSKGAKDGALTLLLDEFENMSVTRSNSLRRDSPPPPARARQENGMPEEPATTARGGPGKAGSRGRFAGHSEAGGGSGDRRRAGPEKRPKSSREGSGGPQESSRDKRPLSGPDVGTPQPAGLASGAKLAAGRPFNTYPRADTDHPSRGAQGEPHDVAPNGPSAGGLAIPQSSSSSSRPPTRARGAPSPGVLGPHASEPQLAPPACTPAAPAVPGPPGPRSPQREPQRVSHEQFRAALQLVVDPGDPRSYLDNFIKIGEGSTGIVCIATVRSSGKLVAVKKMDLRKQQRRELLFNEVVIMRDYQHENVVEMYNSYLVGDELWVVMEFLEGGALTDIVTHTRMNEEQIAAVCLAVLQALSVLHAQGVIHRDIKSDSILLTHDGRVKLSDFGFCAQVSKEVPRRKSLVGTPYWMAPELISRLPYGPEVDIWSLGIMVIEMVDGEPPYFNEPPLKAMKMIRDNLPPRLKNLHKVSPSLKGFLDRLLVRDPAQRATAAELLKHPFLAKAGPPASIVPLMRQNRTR
T3 sequence (Q9UQM7 whole entry): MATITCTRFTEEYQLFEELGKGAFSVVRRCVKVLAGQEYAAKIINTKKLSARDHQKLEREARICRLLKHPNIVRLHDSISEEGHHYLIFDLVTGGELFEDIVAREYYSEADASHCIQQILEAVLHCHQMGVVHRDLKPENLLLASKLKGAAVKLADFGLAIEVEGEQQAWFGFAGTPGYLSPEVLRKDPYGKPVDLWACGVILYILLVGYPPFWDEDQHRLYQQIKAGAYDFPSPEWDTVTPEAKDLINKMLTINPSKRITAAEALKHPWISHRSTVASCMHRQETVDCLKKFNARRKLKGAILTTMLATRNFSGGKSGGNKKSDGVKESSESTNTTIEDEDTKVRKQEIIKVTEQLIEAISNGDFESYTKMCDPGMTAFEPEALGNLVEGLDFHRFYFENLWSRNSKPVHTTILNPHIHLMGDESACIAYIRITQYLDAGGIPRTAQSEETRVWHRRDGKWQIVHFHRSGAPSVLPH
T1 sequence (Q9NYL2 whole entry): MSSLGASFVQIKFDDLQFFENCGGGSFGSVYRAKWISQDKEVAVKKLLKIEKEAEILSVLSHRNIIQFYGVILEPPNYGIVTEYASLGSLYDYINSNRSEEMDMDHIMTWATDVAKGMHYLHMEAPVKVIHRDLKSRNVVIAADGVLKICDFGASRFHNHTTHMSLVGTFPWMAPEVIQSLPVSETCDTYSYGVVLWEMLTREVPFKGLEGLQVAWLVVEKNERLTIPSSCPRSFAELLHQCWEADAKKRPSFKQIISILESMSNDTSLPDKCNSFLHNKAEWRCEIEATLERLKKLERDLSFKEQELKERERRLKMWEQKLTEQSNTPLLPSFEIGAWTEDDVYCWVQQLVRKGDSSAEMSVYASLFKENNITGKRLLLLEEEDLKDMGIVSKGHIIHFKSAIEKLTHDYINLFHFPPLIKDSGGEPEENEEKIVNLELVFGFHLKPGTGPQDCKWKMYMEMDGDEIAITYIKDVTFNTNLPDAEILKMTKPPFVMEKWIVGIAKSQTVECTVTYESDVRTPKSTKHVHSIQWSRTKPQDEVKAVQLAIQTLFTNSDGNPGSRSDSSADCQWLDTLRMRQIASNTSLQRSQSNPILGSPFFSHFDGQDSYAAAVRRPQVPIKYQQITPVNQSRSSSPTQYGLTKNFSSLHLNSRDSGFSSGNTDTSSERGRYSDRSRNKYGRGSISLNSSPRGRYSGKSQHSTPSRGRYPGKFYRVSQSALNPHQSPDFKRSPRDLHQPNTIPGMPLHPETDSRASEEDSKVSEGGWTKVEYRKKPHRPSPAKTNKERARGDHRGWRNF
T2 sequence (Q15375 28-998): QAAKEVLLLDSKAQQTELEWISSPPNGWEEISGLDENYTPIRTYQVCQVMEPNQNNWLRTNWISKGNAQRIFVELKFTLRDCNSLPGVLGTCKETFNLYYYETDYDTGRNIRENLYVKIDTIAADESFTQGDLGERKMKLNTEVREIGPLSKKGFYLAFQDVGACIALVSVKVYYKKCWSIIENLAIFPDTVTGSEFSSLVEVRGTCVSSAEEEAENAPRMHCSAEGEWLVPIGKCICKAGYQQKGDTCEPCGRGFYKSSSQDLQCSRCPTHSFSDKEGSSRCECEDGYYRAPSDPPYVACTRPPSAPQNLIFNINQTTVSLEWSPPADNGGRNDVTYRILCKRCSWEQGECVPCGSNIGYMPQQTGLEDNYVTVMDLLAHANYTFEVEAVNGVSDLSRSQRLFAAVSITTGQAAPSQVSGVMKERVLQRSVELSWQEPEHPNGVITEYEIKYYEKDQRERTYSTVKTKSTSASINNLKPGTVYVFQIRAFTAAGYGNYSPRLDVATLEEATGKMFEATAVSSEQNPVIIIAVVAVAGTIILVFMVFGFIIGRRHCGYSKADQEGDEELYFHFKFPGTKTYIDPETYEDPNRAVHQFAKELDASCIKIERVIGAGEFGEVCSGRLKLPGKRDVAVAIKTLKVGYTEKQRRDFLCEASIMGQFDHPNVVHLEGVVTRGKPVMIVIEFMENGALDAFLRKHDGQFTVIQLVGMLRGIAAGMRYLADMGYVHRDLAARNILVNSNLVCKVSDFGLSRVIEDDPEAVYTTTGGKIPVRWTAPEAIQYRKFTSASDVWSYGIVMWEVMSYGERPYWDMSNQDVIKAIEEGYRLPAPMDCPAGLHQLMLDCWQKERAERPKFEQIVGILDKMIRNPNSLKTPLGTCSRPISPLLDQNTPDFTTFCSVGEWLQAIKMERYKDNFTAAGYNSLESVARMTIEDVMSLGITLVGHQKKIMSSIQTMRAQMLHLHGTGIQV

As to `CCOc1cc(C(=O)N2CCC(N3CCN(C)CC3)CC2)ccc1Nc1ncc2c(n1)N(C1CCCC1)c1ccccc1C(=O)N2C` [Compound 26], the “% Ctrl, ZAK” value at panel of 442 kinases [1] is on record as 100 % Ctrl. The “KINOMEscan: EPHA7” value at panel of 442 kinases [2] is 100. Also, the “KINOMEscan: CAMK2A” value at panel of 442 kinases [3] is listed as 100. Moreover, the “KINOMEscan: PAK4” value on panel of 442 kinases [4] amounted to 100.

With `COc1cc(C(=O)N2CCC(N3CCN(C)CC3)CC2)ccc1Nc1ncc2c(n1)N1CCc3cccc(c31)C(=O)N2C` [Compound 24], the “% Ctrl, ZAK” value on panel of 442 kinases [1] is reported as 88 % Ctrl. The “KINOMEscan: CAMK2A” value at panel of 442 kinases [3] is 44.

As for `COc1cc(C(=O)N2CCC(N3CCN(C)CC3)CC2)ccc1Nc1ncc2c(n1)N(C)c1ccccc1C(=O)N2C` [15 (LRRK2-IN-1)], the “% Ctrl, ZAK” value on panel of 442 kinases [1] was found to be 99 % Ctrl. Further, on panel of 442 kinases [2], the “KINOMEscan: EPHA7” value is listed as 97. Moreover, on panel of 442 kinases [3], the “KINOMEscan: CAMK2A” value is 21. For the same compound, the “KINOMEscan: PAK4” value at panel of 442 kinases [4] worked out at 94.

Turning to `COc1cc(C(=O)N2CCC(N3CCN(C)CC3)CC2)ccc1Nc1ncc2c(n1)N(C1CCCC1)c1ccccc1C(=O)N2C` [Compound 25, 11-cyclopentyl-2-((2-methoxy-4-(4-(4-methylpiperazin-1-yl)piperidine-1-carbonyl)phenyl)amino)-5-methyl-5H-benzo[e]pyrimido[5,4-b][1,4]diazepin-6(11H)-one], on panel of 442 kinases [1], the “% Ctrl, ZAK” value is given as 100 % Ctrl. In addition, the “KINOMEscan: EPHA7” value at panel of 442 kinases [2] amounted to 99. For the same compound, at panel of 442 kinases [3], the “KINOMEscan: CAMK2A” value is given as 81. Also, the “KINOMEscan: PAK4” value at panel of 442 kinases [4] was found to be 91.
